Laboratory results: ChEMBL document CHEMBL6182861, “Structural modification of heptamethine indocyanine dyes with improved aqueous solubility and stability for photothermal therapy” (Eur J Med Chem, 2025)
Calls of active or inactive are those of the source. The calls are words filed in the database; no cut-off is given here.

What was measured:
[1] = tested on: Mitochondrial membrane; experiment: Inhibition of mitochondrial membrane potential in human HepG2 cells at 3.12 uM incubated for 24 hrs by Rh123 probe based CLSM; format: cell membranes
[2] = Drug uptake in mouse 4T1 cells assessed as increase in fluorescence intensity at 3.12 uM incubated for 4 hrs by CLSM; format: ADME, cell-based; conditions: 4t1, 4 h
[3] = tested on: 4T1; experiment: Induction of ROS generation in mouse 4T1 cells at 3.12 uM incubated for 4 hrs followed by exposure to laser irradiation of 808 nm for 2 mins by DCFH-DA probe based CLSM; format: functional, cell-based; conditions: time 242.0 min
[4] = tested on: 4T1; experiment: Induction of ROS generation in mouse 4T1 cells at 3.12 uM incubated for 4 hrs followed by exposure to laser irradiation of 808 nm for 2 mins by flow cytometry; format: functional, cell-based; conditions: time 242.0 min
[5] = tested on: 4T1; experiment: Photothermal cytotoxicity against mouse 4T1 cells up to 25 uM preincubated for 4 hrs followed by exposure to laser irradiation of 808 nm for 2 mins and subsequent incubation for 20 hrs by MTT assay; format: functional, cell-based
[6] = tested on: HepG2; experiment: Induction of apoptosis in human HepG2 cells at 3.12 uM incubated for 4 hrs followed by exposure to laser irradiation of 808 nm for 2 mins by Annexin V-FITC/PI staining based flow cytometry; format: functional, cell-based; conditions: time 242.0 min
[7] = Drug uptake in mouse 4T1 cells assessed as increase in fluorescence intensity at 3.12 uM incubated for 4 hrs by flow cytometry; format: ADME, cell-based; conditions: 4t1, 4 h
[8] = Photosensitizing property of compound assessed as generation of singlet-state oxygen by ESR spectrometry; format: functional
[9] = tested on: HepG2; experiment: Photothermal cytotoxicity against human HepG2 cells up to 25 uM preincubated for 4 hrs followed by exposure to laser irradiation of 808 nm for 2 mins and subsequent incubation for 20 hrs by MTT assay; format: functional, cell-based; conditions: time 1442.0 min
[10] = tested on: Mitochondrial membrane; experiment: Inhibition of mitochondrial membrane potential in human HepG2 cells at 3.12 uM incubated for 24 hrs by flow cytometry; format: cell membranes
[11] = Drug uptake in human HepG2 cells assessed as increase in fluorescence intensity at 3.12 uM incubated for 4 hrs by CLSM; format: ADME, cell-based; conditions: hepg2, 4 h
[12] = tested on: Mitochondrial membrane; experiment: Inhibition of mitochondrial membrane potential in mouse 4T1 cells at 3.12 uM incubated for 24 hrs by Rh123 probe based CLSM; format: cell membranes
[13] = Photothermal stability of compound at 60 degreeC at 20 uM exposed to laser irradiation of 808 nm for 2.5 mins; format: physicochemical
[14] = tested on: Mitochondrial membrane; experiment: Inhibition of mitochondrial membrane potential in mouse 4T1 cells at 3.12 uM incubated for 24 hrs by flow cytometry; format: cell membranes
[15] = tested on: Mitochondrial membrane; experiment: Inhibition of mitochondrial membrane potential in mouse 4T1 cells at 3.12 uM preincubated for 4 hrs followed by exposure to laser irradiation of 808 nm for 2 mins and subsequent incubation for 20 hrs by Rh123 probe based CLSM; format: cell membranes; conditions: time 1442.0 min
[16] = tested on: Mitochondrial membrane; experiment: Inhibition of mitochondrial membrane potential in human HepG2 cells at 3.12 uM preincubated for 4 hrs followed by exposure to laser irradiation of 808 nm for 2 mins and subsequent incubation for 20 hrs by flow cytometry; format: cell membranes; conditions: time 1442.0 min
[17] = tested on: Mitochondrial membrane; experiment: Inhibition of mitochondrial membrane potential in human HepG2 cells at 3.12 uM preincubated for 4 hrs followed by exposure to laser irradiation of 808 nm for 2 mins and subsequent incubation for 20 hrs by Rh123 probe based CLSM; format: cell membranes; conditions: time 1442.0 min
[18] = Aqueous solubility of compound by absorbance based assay; format: physicochemical; conditions: buffer
[19] = tested on: Mitochondrial membrane; experiment: Inhibition of mitochondrial membrane potential in mouse 4T1 cells at 3.12 uM preincubated for 4 hrs followed by exposure to laser irradiation of 808 nm for 2 mins and subsequent incubation for 20 hrs by flow cytometry; format: cell membranes; conditions: time 1442.0 min
[20] = Photosensitizing property of compound assessed as generation of singlet-state oxygen at 10 uM exposed to laser irradiation of 808 nm for 2 mins by SOSG probe based analysis; format: functional
[21] = tested on: HepG2; experiment: Induction of ROS generation in human HepG2 cells at 3.12 uM incubated for 4 hrs followed by exposure to laser irradiation of 808 nm for 2 mins by DCFH-DA probe based CLSM; format: functional, cell-based; conditions: time 242.0 min
[22] = Drug uptake in human HepG2 cells assessed as increase in fluorescence intensity at 3.12 uM incubated for 4 hrs by flow cytometry; format: ADME, cell-based; conditions: hepg2, 4 h
[23] = tested on: 4T1; experiment: Induction of apoptosis in mouse 4T1 cells at 3.12 uM incubated for 4 hrs followed by exposure to laser irradiation of 808 nm for 2 mins by Annexin V-FITC/PI staining based flow cytometry; format: functional, cell-based; conditions: time 242.0 min
[24] = tested on: HepG2; experiment: Induction of ROS generation in human HepG2 cells at 3.12 uM incubated for 4 hrs followed by exposure to laser irradiation of 808 nm for 2 mins by flow cytometry; format: functional, cell-based; conditions: time 242.0 min
[25] = Photothermal property of compound assessed as increase in photothermal conversion efficiency at 20 uM exposed to laser irradiation of 808 nm for 2 mins; format: functional
[26] = tested on: Mitochondrial membrane; experiment: Inhibition of mitochondrial membrane potential in mouse 4T1 cells assessed as green fluorescence at 3.12 uM preincubated for 4 hrs followed by exposure to laser irradiation of 808 nm for 2 mins and subsequent incubation for 20 hrs by JC-1 dye based analysis; format: cell membranes; conditions: time 1442.0 min
[27] = tested on: Mitochondrial membrane; experiment: Inhibition of mitochondrial membrane potential in human HepG2 cells assessed as green fluorescence at 3.12 uM preincubated for 4 hrs followed by exposure to laser irradiation of 808 nm for 2 mins and subsequent incubation for 20 hrs by JC-1 dye based analysis; format: cell membranes; conditions: time 1442.0 min
[28] = tested on: HepG2; experiment: Cytotoxicity against human HepG2 cells under dark condition at 3.12 uM incubated for 24 hrs by MTT assay; format: functional, cell-based
[29] = tested on: 4T1; experiment: Cytotoxicity against mouse 4T1 cells under dark condition at 3.12 uM incubated for 24 hrs by MTT assay; format: functional, cell-based

| SMILES | Drug uptake [2] | Drug uptake [7] | Drug uptake [11] | Stability [13] | Drug uptake [22] | inhibition [1] | Activity [3] | Activity [4] | Activity [6] | Activity [8] | inhibition [10] | inhibition [12] | inhibition [14] | inhibition [15] | inhibition [16] | inhibition [17] | inhibition [19] | Activity [20] | Activity [21] | Activity [23] | also measured |
| --- | --- | --- | --- | --- | --- | --- | --- | --- | --- | --- | --- | --- | --- | --- | --- | --- | --- | --- | --- | --- | --- |
| CC1(C)C(/C=C/C=C/C=C/C=C2\N(CCCCS(=O)(=O)O)c3ccc4ccccc4c3C2(C)C)=[N+](CCCCS(=O)(=O)[O-])c2ccc3ccccc3c21 |  |  |  |  |  |  |  |  |  | Active |  |  |  |  |  |  |  | inactive |  |  |  |
| CN1/C(=C/C=C/C(C#N)=C/C=C/C2=[N+](C)c3ccccc3C2(C)C)C(C)(C)c2ccccc21.[I-] | Active | Active | Active | Stable | Active | Active; Certain Degree Of Inhibition Was Observed | Active | Active | Active | Active | Active; Certain Degree Of Inhibition Was Observed | Active; Certain Degree Of Inhibition Was Observed | Active; Certain Degree Of Inhibition Was Observed | Active; Significant Inhibition Was Observed | Active; Significant Inhibition Was Observed | Active; Significant Inhibition Was Observed | Active; Significant Inhibition Was Observed | Active | Active | Active | Activity [28]: Active; inhibition [26]: Active; Activity [29]: Active; inhibition [27]: Active; Activity [24]: Active |
| COCCOCCOCCN1/C(=C/C=C/C(C#N)=C/C=C/C2=[N+](CCOCCOCCOC)c3ccccc3C2(C)C)C(C)(C)c2ccccc21.[I-] | Active | Active | Active | Stable | Active | Active; Certain Degree Of Inhibition Was Observed | Active | Active | Active | Active | Active; Certain Degree Of Inhibition Was Observed | Active; Certain Degree Of Inhibition Was Observed | Active; Certain Degree Of Inhibition Was Observed | Active; Significant Inhibition Was Observed | Active; Significant Inhibition Was Observed | Active; Significant Inhibition Was Observed | Active; Significant Inhibition Was Observed | Active | Active | Active | Activity [25]: 0.7%; Activity [28]: Active; inhibition [26]: Active; Activity [29]: Active; inhibition [27]: Active; solubility [18]: soluble; Activity [24]: Active |

Second part, led by results:

| Drug uptake [2] | Drug uptake [7] | Drug uptake [11] | Stability [13] | Drug uptake [22] | SMILES | inhibition [1] | Activity [3] | Activity [4] | Activity [6] | Activity [8] | inhibition [10] | inhibition [12] | inhibition [14] | inhibition [15] | inhibition [16] | inhibition [17] | inhibition [19] | Activity [20] | Activity [21] | Activity [23] | also measured |
| --- | --- | --- | --- | --- | --- | --- | --- | --- | --- | --- | --- | --- | --- | --- | --- | --- | --- | --- | --- | --- | --- |
| Active | Active | Active | Unstable | Active | CN1/C(=C/C=C/C=C/C=C/C2=[N+](C)c3ccccc3C2(C)C)C(C)(C)c2ccccc21.[I-] | Active; Certain Degree Of Inhibition Was Observed | Active | Active | Active | Active | Active; Certain Degree Of Inhibition Was Observed | Active; Certain Degree Of Inhibition Was Observed | Active; Certain Degree Of Inhibition Was Observed | Active; Significant Inhibition Was Observed | Active; Significant Inhibition Was Observed | Active; Significant Inhibition Was Observed | Active; Significant Inhibition Was Observed | Active | Active | Active | Activity [5]: inactive; Activity [9]: inactive; solubility [18]: Insoluble; Activity [24]: Active |
| Active | Active | Active | Unstable | Active | COCCOCCOCCN1/C(=C/C=C/C=C/C=C/C2=[N+](CCOCCOCCOC)c3ccccc3C2(C)C)C(C)(C)c2ccccc21.[I-] | Active; Certain Degree Of Inhibition Was Observed | Active; Exhibited Highest Activity Among Tested Compounds | Active; Exhibited Highest Activity Among Tested Compounds | Active | Active | Active; Certain Degree Of Inhibition Was Observed | Active; Certain Degree Of Inhibition Was Observed | Active; Certain Degree Of Inhibition Was Observed | Active; Significant Inhibition Was Observed | Active; Significant Inhibition Was Observed | Active; Significant Inhibition Was Observed | Active; Significant Inhibition Was Observed | Active | Active; Exhibited Highest Activity Among Tested Compounds | Active | Activity [25]: 5.2%; Activity [5]: Active; Compound Was Less Photo-Thermally Effective But Showed Stronger Cell-Killing Ability; inhibition [26]: Active; Activity [9]: Active; Compound Was Less Photo-Thermally Effective But Showed Stronger Cell-Killing Ability; inhibition [27]: Active; Activity [24]: Active; Exhibited Highest Activity Among Tested Compounds |
